One assay concerns the target human STING (Homo sapiens, UniProt Q86WV6). Kind of assay: Fluorescence Thermal Shift assay. As to conditions: 50 μM compound; STING 0.1 mg/ml; 20 minutes preincubation; read-out: [hSTING] FTS, ΔTm [° C.] for 50 μM. The assay is classed as binding. Summed up:
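Human STING at a final 0.1 mg/ml was preincubated with compound for 20 min in 50 mM Hepes, 150 mM NaCl, pH 7.5, then SyproOrange dye was added. Thermal unfolding ran from 25 to 99° C at 0.033° C/s, continuous ramp. Values are reported as ΔTm (° C).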

For assay [1], the system named is interferon regulatory factor (IRF) pathway in THP-1 dual cells. Kind of assay: THP-1 Dual Reporter Assay, IRF pathway (luciferase reporter). Type of assay: cell-based. As to conditions: Homo sapiens, THP1-Dual, 18 h of stimulation, luminescence. The method, boiled down:
(§1)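 THP-1 dual cells stimulated 18 h with STING agonist; medium then sampled. IRF pathway: luciferase (ISG54 promoter/ISRE) read as luminescence immediately after reagent addition. NF-κB pathway: SEAP (IFN-β minimal promoter/NF-κB elements) developed 2 h at 37 °C, absorbance at 630 nm.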

Assay [2] relates to NF-κB pathway in THP-1 dual cells. As to the kind of experiment: THP-1 Dual Reporter Assay, NF-κB pathway (SEAP reporter). The assay is classed as cell-based. The note with it: Homo sapiens, THP1-Dual, 18 h of stimulation, absorbance at 630 nm, read-out: THP1 Dual EC50 (μM) NFkB. Summed up: as §1

Chain of human STING (Q86WV6 whole entry H232R): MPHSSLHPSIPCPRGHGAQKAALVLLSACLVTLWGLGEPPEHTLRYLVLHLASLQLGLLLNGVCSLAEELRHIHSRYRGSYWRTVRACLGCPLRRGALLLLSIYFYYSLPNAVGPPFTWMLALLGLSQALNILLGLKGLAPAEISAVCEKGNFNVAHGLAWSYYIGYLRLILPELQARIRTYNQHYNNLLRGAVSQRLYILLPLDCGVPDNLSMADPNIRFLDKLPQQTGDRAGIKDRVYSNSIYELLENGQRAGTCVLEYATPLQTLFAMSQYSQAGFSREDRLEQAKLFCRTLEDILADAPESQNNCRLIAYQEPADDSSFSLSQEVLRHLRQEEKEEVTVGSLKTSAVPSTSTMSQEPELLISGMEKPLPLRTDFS

With `COc1cc(CN(CCCn2cnc3cncnc32)Cc2c(C)oc3cc(Br)c(F)cc3c2=O)ccn1` [Example 78, 7-bromo-6-fluoro-3-({[(2-methoxypyridin-4-yl)methyl][3-(9H-purin-9-yl)propyl]amino}methyl)-2-methyl-4H-chromen-4-one], the ΔTm at 50 µM at human STING was more than 2.5 °C. Further, the EC50 in assay [1] and in assay [2] was not above 10 µM throughout.

For `Cc1oc2cc(N3CCN(C)CC3)c(F)cc2c(=O)c1CN(CCCn1cnc2cncnc21)Cc1ccncc1` [Example 79, 6-fluoro-2-methyl-7-(4-methylpiperazin-1-yl)-3-({[3-(9H-purin-9-yl)propyl][(pyridin-4-yl)methyl]amino}methyl)-4H-chromen-4-one], the ΔTm at 50 µM at human STING was more than 2.5 °C. The EC50 in assay [1] and in assay [2] was not above 10 µM in each case.

For the compound `Cc1oc2cc(C(=O)O)c(F)cc2c(=O)c1CN(CCCc1cccnc1)Cc1ccncc1` [Example 80, 6-fluoro-2-methyl-4-oxo-3-({[3-(pyridin-3-yl)propyl][(pyridin-4-yl)methyl]amino}methyl)-4H-chromene-7-carboxylic acid], the ΔTm at 50 µM at human STING is less than 2.5 °C. Besides, the EC50 in assay [1] and in assay [2] was not below 20 µM each time.

As to `Cc1ccc2c(=O)c(CN(CCCn3cnc4c(N)ncnc43)Cc3ccncc3)c(C)oc2c1C` [Example 81, 3-({[3-(6-amino-9H-purin-9-yl)propyl][(pyridin-4-yl)methyl]amino}methyl)-2,7,8-trimethyl-4H-chromen-4-one], the ΔTm at 50 µM on human STING was more than 2.5 °C. Further, the EC50 in assay [1] is not below 20 µM; in assay [2] it was 10 to 20 µM.

`COc1cc(CN(CCCn2cnc3ccccc32)Cc2cn(C)c3ccccc3c2=O)ccn1` [Example 82, 3-({[3-(1H-1,3-benzodiazol-1-yl)propyl][(2-methoxypyridin-4-yl)methyl]amino}methyl)-1-methyl-1,4-dihydroquinolin-4-one]: the ΔTm at 50 µM on human STING is more than 2.5 °C. Besides, the EC50 in assay [1] and in assay [2] was not above 10 µM throughout.

In the case of `COc1cc(CN(Cc2coc3c(ccc4ccccc43)c2=O)C(C)CCc2cccnc2)ccn1` (stereo not drawn) [Example 83, 3-({[(2-methoxypyridin-4-yl)methyl][4-(pyridin-3-yl)butan-2-yl]amino}methyl)-4H-benzo[h]chromen-4-one], the ΔTm at 50 µM on human STING was less than 2.5 °C. For the same compound, the EC50 in assay [1] and in assay [2] was not above 10 µM each time.

On to `COc1cc(CN(CCCn2cnc3cncnc32)Cc2c(C)oc3cc(N4CCN(C)CC4)c(F)cc3c2=O)ccn1` [Example 84, 6-fluoro-2-methyl-7-(4-methylpiperazin-1-yl)-3-({[3-(9H-purin-9-yl)propyl][(2-methoxypyridin-4-yl)methyl]amino}methyl)-4H-chromen-4-one], for which the ΔTm at 50 µM at human STING was more than 2.5 °C. For the same compound, the values for the EC50 in assay [1] and in assay [2] were 10 to 20 µM and not above 10 µM, respectively.

`O=c1c(CN(CCCn2cnc3ccccc32)Cc2ccncc2F)coc2c1ccc1ccccc12` [Example 85, 3-({[3-(1H-1,3-benzodiazol-1-yl)propyl][(3-fluoropyridin-4-yl)methyl]amino}methyl)-4H-benzo[h]chromen-4-one]: at human STING, the ΔTm at 50 µM was less than 2.5 °C. The EC50 in assay [1] and in assay [2] was not below 20 µM in each case.

Consider `COc1cc(CN(CCCn2cnc3ccccc32)Cc2c[nH]c3ccccc3c2=O)ccn1` [Example 88, 3-({[3-(1H-1,3-benzodiazol-1-yl)propyl][(2-methoxypyridin-4-yl)methyl]amino}methyl)-1,4-dihydroquinolin-4-one], for which the ΔTm at 50 µM at human STING is more than 2.5 °C. Also, the EC50 in assay [1] and in assay [2] was not below 20 µM each time.

Take `COc1cc(CN(CCCn2cnc3cncnc32)Cc2cn(C)c3ccccc3c2=O)ccn1` [Example 89, 3-({[(2-methoxypyridin-4-yl)methyl][3-(9H-purin-9-yl)propyl]amino}methyl)-1-methyl-1,4-dihydroquinolin-4-one]: the ΔTm at 50 µM at human STING was less than 2.5 °C. For the same compound, the EC50 in assay [1] and in assay [2] was not above 10 µM each time.

`Cn1cc(CN(CCCc2cccnc2)Cc2ccnc(Cl)c2)c(=O)c2ccccc21` [Example 90, 3-({[(2-chloropyridin-4-yl)methyl][3-(pyridin-3-yl)propyl]amino}methyl)-1-methyl-1,4-dihydroquinolin-4-one]: the ΔTm at 50 µM at human STING was more than 2.5 °C. The EC50 in assay [1] is not above 10 µM; in assay [2] it was 10 to 20 µM.

For the compound `COc1cc(CN(CCCn2cnc3ncncc32)Cc2cn(C)c3ccccc3c2=O)ccn1` [Example 91, 3-({[(2-methoxypyridin-4-yl)methyl][3-(7H-purin-7-yl)propyl]amino}methyl)-1-methyl-1,4-dihydroquinolin-4-one], the thermal shift (ΔTm) at 50 µM on human STING was less than 2.5 °C. Besides, the EC50 in assay [1] and in assay [2] was not below 20 µM each time.

In the case of `COc1cc(CN(CCCc2cc[nH]c(=O)c2)Cc2coc3c(ccc4ccccc43)c2=O)ccn1` [Example 93, 4-(3-{[(2-methoxypyridin-4-yl)methyl]({4-oxo-4H-benzo[h]chromen-3-yl}methyl)amino}propyl)-1,2-dihydropyridin-2-one], on human STING, the ΔTm at 50 µM was more than 2.5 °C. Moreover, the EC50 in assay [1] and in assay [2] was not below 20 µM throughout.

For `COc1cc(CN(CCCc2cccnc2)Cc2nn(C)c3ccccc3c2=O)ccn1` [Example 94, 3-({[(2-methoxypyridin-4-yl)methyl][3-(pyridin-3-yl)propyl]amino}methyl)-1-methyl-1,4-dihydrocinnolin-4-one], the ΔTm at 50 µM at human STING was more than 2.5 °C. The EC50 in assay [1] was not above 10 µM; in assay [2], not below 20 µM.

On to `COc1cc(CN(CCCc2cccnc2)Cc2cn(C3CC3)c3cc(F)c(F)cc3c2=O)ccn1` [Example 95, 1-cyclopropyl-6,7-difluoro-3-({[(2-methoxypyridin-4-yl)methyl][3-(pyridin-3-yl)propyl]amino}methyl)-1,4-dihydroquinolin-4-one], for which, on human STING, the ΔTm at 50 µM is more than 2.5 °C. The results for the EC50 in assay [1] and in assay [2] were not above 10 µM and 10 to 20 µM, respectively.

With `COc1cc(CN(CCCc2cncnc2)Cc2cn(C)c3ccccc3c2=O)ccn1` [Example 96, 3-({[(2-methoxypyridin-4-yl)methyl][3-(pyrimidin-5-yl)propyl]amino}methyl)-1-methyl-1,4-dihydroquinolin-4-one], the ΔTm at 50 µM on human STING is more than 2.5 °C. In addition, the half-maximal effective concentration (EC50) in assay [1] and in assay [2] was not above 10 µM in each case.

Turning to `COc1cc(CN(Cc2cn(C)c3ccccc3c2=O)C(C)CCc2cccnc2)ccn1` (stereo not drawn) [Example 97, 3-({[(2-methoxypyridin-4-yl)methyl][4-(pyridin-3-yl)butan-2-yl]amino}methyl)-1-methyl-1,4-dihydroquinolin-4-one], the ΔTm at 50 µM at human STING is more than 2.5 °C. Besides, the EC50 in assay [1] and in assay [2] was not above 10 µM throughout.

As for `COc1cc(CN(CCCc2cccnc2)Cc2n[nH]c3ccccc3c2=O)ccn1` [Example 98, 3-({[(2-methoxypyridin-4-yl)methyl][3-(pyridin-3-yl)propyl]amino}methyl)-1,4-dihydrocinnolin-4-one], the ΔTm at 50 µM on human STING was more than 2.5 °C. Further, the EC50 in assay [1] was 10 to 20 µM; in assay [2], not below 20 µM.

`Cc1oc2cc(F)c(F)cc2c(=O)c1CN(CCCn1cnc2ccccc21)Cc1ccncc1` [Example 99, 3-({[3-(1H-1,3-benzodiazol-1-yl)propyl][(pyridin-4-yl)methyl]amino}methyl)-6,7-difluoro-2-methyl-4H-chromen-4-one]: the ΔTm at 50 µM at human STING is more than 2.5 °C. Besides, the EC50 in assay [1] and in assay [2] was not above 10 µM throughout.

Take `Cc1cc(CN(CCCn2cnc3ccccc32)Cc2cn(C)c3ccccc3c2=O)ccn1` [Example 100, 3-({[3-(1H-1,3-benzodiazol-1-yl)propyl][(2-methylpyridin-4-yl)methyl]amino}methyl)-1-methyl-1,4-dihydroquinolin-4-one]: the ΔTm at 50 µM at human STING is more than 2.5 °C. Besides, the EC50 in assay [1] and in assay [2] was not above 10 µM throughout.

As for `Cc1cc(CN(CCCc2cccnc2)Cc2cn(C)c3ccccc3c2=O)ccn1` [Example 101, 1-methyl-3-({[(2-methylpyridin-4-yl)methyl][3-(pyridin-3-yl)propyl]amino}methyl)-1,4-dihydroquinolin-4-one], the ΔTm at 50 µM at human STING is more than 2.5 °C. Also, the EC50 in assay [1] is not above 10 µM; in assay [2], 10 to 20 µM.

With `COc1cc(CN(CCCc2ccnnc2)Cc2cn(C)c3ccccc3c2=O)ccn1` [Example 102, 3-({[(2-methoxypyridin-4-yl)methyl][3-(pyridazin-4-yl)propyl]amino}methyl)-1-methyl-1,4-dihydroquinolin-4-one], the ΔTm at 50 µM at human STING is less than 2.5 °C. Besides, the EC50 in assay [1] and in assay [2] was not below 20 µM throughout.

For the compound `COc1cc(CN(CCCn2cc(C(N)=O)nn2)Cc2cn(C)c3ccccc3c2=O)ccn1` [Example 103, 1-(3-{[(2-methoxypyridin-4-yl)methyl][(1-methyl-4-oxo-1,4-dihydroquinolin-3-yl)methyl]amino}propyl)-1H-1,2,3-triazole-4-carboxamide], the ΔTm at 50 µM on human STING is less than 2.5 °C. The EC50 in assay [1] and in assay [2] was not below 20 µM each time.

These data come from patent US12162863B2, “Modulators of stimulator of interferon genes (STING)” (RYVU THERAPEUTICS S.A., priority 2018, dated 2024).
